Measured values: patent US8445462B2, “Composition for the treatment of osteoarthritis” (Bioiberica, S.A., priority 2007, dated 2013)
Where a name gives a salt, the structure may show the parent alone.

System: experimental osteoarthritis induced by partial medial meniscectomy in guinea pigs
Test: Experimental osteoarthritis induced by partial medial meniscectomy in guinea pigs: chondroprotective activity and modified Mankin histological evaluation
Assay type: in vivo, Dunkin Hartley (DH) guinea pigs
Details: CS 95 mg/kg/day, Man 60 mg/kg/day; for average chondroprotective activity (GAGs, cartilage structure, chondrocyte proliferation): oral gavage once a day for 70 days, blank control group 100%, operated control group 0%; for global histopathological score (modified Mankin) with respect to the operated group, result in words: oral, 70 days
Excerpt: The objective was to evaluate the chondroprotective activity (cartilage protective activity) of a composition formed by a mixture of chondroitin sulphate and mannosamine hydrochloride as sole active components, in a model of experimental osteoarthritis induced by partial medial meniscectomy in guinea pigs (A. M. Bendele, Progressive chronic osteoarthritis in femorotibial joints of partial medial meniscectomized guinea pigs, Vet. Pathol. 24, 444-448 (1987)), comparing said activity with the chondroprotective activity of chondroitin sulphate and of mannosamine hydrochloride.
Dunkin Hartley (DH) guinea pigs with a weight comprised between 580 and 699 g were used. A partial medial meniscectomy was performed in a part of them.
The following treatment groups were formed: blank control group (corresponding to healthy guinea pigs), operated control group (corresponding to guinea pigs in which a partial medial meniscectomy was performed to induce an experimental osteoarthritis in them), operated guinea pigs to which the sodium salt of chondroitin sulphate (95 mg/kg of body weight/day) was administered, operated guinea pigs to which mannosamine hydrochloride (60 mg/kg of body weight/day) was administered, operated guinea pigs to which a mixture of sodium salt of chondroitin sulphate (95 mg/kg of body weight/day) and mannosamine hydrochloride (60 mg/kg of body weight/day) was administered.
On the day after the surgery, the daily administration of the corresponding oral treatments by means of gastric gavage was started, the carrier used being water for injection. The blank control and operated control groups only received the carrier (water for injection) by oral route.
The treatments were administered once a day for 70 days (ten weeks). The body weight and the clinical signs of the animals were recorded twice a day. No remarkable clinical signs were observed throughout the treatment period.
On the day after the administration had ended, the animals were sacrificed by anaesthetic overdose (pentobarbital sodium) and the femorotibial joint of the right rear leg was removed for its fixing in 10% formol for at least 48 hours. Then, they were decalcified, included in paraffin, the necessary sections were obtained and the stainings with Hematoxylin-Eosin and Safranin-O-Fast Green (or Toluidine Blue) were performed for their histological evaluation, which was performed by a pathologist in a blind manner.
The severity of the osteoarthritic injuries was evaluated by means of the modified histologic/histochemical scale of Mankin et al. (H J. Mankin and L. Lipiello Biochemical and metabolic abnormalities in articular cartilage from osteoarthritic human hips. J. Bone Joint Surg.-Amer. 53-A, 523-537 (1971)). […]

Compound | average chondroprotective activity (GAGs, cartilage structure, chondrocyte proliferation) | global histopathological score (modified Mankin) with respect to the operated group, result in words
chondroitin sulphate | 12% | improvement with respect to the operated group, but without statistical significance
N[C@@H]1C(O)O[C@H](CO)[C@@H](O)[C@@H]1O (stereo partly drawn) [mannosamine hydrochloride, 2-amino-2-deoxy-D-mannose] | −21% | no statistically significant differences
